Our source for the Kd values is ChEMBL document CHEMBL3991601, “The target landscape of clinical kinase drugs” (Science, 2017).

Test [1] concerns the target MAP/microtubule affinity-regulating kinase 3 (Homo sapiens, UniProt P27448).
Test [2] addresses Serine/threonine-protein kinase ATR (Homo sapiens, UniProt Q13535).
Test [3] addresses Serine/threonine-protein kinase MRCK gamma (Homo sapiens, UniProt Q6DT37).
Test [4] concerns the target T1, Phosphatidylinositol 5-phosphate 4-kinase type-2 alpha (Homo sapiens, UniProt P48426).
T1 sequence (P48426 whole entry): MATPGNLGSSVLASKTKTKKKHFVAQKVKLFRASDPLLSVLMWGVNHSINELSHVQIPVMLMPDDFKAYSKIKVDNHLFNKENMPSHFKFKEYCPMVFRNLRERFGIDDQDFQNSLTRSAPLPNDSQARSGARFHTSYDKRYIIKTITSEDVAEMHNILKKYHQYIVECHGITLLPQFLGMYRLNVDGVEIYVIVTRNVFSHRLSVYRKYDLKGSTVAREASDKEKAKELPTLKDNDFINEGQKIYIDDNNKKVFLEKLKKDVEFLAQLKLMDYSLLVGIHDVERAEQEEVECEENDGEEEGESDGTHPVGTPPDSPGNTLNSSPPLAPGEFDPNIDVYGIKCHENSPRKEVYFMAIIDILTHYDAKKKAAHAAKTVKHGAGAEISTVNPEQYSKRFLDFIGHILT

The target of test [5] is Protein kinase C theta type (Homo sapiens, UniProt Q04759).
Test [6] addresses T2, Beta-adrenergic receptor kinase 1 (Homo sapiens, UniProt P25098).
T2 sequence (P25098 whole entry): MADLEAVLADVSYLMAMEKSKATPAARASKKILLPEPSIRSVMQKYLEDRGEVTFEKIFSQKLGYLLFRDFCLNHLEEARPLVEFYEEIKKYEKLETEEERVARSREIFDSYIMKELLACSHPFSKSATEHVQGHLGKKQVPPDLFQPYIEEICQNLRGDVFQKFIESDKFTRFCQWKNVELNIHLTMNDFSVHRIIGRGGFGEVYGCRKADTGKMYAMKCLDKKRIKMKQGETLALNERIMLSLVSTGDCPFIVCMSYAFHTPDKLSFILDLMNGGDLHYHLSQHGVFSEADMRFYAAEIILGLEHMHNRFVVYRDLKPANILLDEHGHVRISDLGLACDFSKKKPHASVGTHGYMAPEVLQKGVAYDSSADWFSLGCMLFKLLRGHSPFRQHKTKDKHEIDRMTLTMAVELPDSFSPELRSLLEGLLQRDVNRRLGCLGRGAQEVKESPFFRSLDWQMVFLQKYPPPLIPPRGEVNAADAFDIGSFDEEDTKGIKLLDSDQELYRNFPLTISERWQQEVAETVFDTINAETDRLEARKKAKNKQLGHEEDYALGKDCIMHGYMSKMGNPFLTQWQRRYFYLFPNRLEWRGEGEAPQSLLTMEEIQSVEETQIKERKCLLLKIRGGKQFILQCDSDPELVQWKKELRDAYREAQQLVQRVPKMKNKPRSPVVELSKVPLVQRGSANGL

Test [7] concerns the target Ribosomal protein S6 kinase alpha-1 (Homo sapiens, UniProt Q15418).
For test [8], the target named is Tyrosine-protein kinase ABL1 (Homo sapiens, UniProt P00519).
Test [9] addresses T3, Serine/threonine-protein kinase D3 (Homo sapiens, UniProt O94806).
T3 sequence (O94806 whole entry): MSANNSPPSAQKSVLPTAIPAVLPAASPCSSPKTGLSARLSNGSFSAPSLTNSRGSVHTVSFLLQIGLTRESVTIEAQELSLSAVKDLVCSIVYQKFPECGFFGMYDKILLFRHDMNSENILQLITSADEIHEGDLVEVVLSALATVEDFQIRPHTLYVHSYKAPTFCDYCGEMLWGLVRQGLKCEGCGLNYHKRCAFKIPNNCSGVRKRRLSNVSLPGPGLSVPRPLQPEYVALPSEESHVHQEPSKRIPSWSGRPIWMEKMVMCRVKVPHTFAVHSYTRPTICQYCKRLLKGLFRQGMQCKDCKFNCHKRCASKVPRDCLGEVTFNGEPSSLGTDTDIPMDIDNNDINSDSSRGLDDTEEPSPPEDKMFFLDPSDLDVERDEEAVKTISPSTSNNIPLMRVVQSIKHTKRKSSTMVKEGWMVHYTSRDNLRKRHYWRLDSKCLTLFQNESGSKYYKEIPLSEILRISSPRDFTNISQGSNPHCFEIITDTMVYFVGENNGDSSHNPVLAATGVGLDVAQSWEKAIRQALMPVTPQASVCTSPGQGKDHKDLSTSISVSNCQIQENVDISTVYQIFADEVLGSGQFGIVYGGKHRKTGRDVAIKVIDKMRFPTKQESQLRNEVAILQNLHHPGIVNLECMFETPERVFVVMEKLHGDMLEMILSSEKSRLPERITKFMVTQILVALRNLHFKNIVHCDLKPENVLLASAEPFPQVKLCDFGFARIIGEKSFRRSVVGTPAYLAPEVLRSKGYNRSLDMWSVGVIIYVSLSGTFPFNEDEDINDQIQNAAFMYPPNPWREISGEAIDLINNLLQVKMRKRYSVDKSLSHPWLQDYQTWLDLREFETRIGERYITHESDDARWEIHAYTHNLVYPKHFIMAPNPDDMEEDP

Test [10] deals with T4, Heme oxygenase 2 (Homo sapiens, UniProt P30519).
T4 sequence (P30519 whole entry): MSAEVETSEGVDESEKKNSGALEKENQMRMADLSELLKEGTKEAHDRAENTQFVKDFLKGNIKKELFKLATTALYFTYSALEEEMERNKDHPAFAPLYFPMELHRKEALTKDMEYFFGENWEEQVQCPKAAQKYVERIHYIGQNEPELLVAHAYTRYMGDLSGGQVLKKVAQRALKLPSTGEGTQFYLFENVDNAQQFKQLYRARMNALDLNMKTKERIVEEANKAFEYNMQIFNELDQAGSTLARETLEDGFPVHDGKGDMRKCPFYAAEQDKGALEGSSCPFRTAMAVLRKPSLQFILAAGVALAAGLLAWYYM

The structures appear in SMILES notation. Activity calls are given as the source filed them.
Also: in the data inactive means no Kd found up to 30 µM.

Chain of Tyrosine-protein kinase ABL1 (P00519 whole entry): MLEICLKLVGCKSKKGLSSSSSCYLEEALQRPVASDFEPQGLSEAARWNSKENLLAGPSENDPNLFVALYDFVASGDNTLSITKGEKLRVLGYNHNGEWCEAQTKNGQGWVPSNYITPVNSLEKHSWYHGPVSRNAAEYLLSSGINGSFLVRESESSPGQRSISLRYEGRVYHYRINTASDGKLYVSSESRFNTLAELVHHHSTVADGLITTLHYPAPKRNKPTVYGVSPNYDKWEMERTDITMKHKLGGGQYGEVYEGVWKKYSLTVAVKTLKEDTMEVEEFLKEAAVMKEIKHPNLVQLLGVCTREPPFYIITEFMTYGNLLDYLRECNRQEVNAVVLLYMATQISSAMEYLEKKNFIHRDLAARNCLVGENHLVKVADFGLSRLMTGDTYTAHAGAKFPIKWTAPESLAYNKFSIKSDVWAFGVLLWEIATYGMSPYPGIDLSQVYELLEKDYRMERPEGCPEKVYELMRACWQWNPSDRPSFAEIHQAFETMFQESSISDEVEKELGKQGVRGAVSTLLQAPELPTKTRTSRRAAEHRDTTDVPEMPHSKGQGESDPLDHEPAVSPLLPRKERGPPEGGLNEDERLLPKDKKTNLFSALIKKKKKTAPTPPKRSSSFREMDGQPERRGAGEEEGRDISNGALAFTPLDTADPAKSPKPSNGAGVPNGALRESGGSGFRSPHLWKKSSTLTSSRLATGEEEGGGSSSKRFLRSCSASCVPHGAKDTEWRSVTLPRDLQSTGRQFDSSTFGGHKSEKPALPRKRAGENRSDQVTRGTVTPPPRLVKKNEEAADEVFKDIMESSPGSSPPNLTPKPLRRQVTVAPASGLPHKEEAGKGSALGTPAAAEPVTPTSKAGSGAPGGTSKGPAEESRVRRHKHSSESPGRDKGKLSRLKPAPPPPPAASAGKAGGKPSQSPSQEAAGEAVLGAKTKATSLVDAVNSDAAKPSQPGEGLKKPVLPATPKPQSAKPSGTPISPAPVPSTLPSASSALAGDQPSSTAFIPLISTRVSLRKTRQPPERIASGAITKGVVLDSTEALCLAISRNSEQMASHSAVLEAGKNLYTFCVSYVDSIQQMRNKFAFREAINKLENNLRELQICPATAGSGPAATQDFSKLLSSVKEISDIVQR
Chain of Serine/threonine-protein kinase MRCK gamma (Q6DT37 whole entry): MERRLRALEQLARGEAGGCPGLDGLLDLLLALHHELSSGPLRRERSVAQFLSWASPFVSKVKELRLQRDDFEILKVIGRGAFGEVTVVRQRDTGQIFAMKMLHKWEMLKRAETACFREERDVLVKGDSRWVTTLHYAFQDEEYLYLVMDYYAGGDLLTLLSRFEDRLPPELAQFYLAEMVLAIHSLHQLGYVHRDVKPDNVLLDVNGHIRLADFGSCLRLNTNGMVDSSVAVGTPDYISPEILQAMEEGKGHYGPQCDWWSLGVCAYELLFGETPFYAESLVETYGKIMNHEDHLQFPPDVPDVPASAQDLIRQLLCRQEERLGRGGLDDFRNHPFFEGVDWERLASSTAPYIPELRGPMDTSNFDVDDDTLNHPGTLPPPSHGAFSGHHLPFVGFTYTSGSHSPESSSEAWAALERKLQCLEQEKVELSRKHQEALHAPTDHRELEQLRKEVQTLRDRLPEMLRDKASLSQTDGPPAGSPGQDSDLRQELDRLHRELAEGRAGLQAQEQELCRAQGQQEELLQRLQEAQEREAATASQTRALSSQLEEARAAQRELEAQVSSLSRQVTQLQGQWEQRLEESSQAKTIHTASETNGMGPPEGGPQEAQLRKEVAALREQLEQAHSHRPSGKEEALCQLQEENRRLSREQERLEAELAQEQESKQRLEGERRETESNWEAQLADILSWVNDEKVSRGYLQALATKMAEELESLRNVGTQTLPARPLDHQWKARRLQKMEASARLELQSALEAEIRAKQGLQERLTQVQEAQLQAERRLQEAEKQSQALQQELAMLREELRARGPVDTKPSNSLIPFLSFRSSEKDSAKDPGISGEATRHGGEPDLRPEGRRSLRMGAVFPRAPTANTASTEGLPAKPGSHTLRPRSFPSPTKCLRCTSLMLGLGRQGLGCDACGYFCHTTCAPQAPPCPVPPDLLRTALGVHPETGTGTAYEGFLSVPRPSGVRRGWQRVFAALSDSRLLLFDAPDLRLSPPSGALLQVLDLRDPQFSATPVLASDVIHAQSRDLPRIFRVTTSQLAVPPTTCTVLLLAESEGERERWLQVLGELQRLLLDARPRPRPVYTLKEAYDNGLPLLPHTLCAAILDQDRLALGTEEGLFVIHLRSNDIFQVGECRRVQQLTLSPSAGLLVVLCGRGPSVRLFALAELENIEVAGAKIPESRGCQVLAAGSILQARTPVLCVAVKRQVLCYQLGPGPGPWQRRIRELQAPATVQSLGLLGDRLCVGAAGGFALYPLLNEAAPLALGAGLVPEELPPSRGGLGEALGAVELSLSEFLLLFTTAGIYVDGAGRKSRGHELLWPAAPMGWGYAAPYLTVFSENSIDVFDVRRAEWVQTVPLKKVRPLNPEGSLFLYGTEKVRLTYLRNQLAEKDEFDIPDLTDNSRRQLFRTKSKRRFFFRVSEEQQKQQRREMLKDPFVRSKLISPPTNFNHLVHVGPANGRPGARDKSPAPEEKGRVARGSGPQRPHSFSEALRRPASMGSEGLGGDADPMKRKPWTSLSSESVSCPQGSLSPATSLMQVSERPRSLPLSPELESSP
Chain of Ribosomal protein S6 kinase alpha-1 (Q15418 whole entry): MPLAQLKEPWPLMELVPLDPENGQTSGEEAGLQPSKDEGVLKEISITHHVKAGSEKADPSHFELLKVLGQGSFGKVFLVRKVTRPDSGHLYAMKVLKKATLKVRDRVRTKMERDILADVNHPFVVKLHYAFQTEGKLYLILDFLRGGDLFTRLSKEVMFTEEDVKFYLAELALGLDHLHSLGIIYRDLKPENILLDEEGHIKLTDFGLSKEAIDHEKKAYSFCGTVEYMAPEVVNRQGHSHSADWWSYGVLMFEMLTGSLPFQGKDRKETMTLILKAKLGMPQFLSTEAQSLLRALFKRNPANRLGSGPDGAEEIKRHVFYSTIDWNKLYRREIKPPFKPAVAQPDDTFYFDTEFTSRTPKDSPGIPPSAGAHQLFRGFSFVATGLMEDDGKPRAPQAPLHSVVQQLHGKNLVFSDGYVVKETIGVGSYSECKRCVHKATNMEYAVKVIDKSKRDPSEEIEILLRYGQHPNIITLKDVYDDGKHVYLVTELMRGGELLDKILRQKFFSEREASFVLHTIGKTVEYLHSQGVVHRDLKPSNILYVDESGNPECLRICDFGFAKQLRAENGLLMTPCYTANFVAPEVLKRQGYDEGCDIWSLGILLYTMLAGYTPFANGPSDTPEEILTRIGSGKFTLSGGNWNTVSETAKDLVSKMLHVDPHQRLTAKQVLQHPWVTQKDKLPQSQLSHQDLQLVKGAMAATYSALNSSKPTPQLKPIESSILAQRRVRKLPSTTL
Chain of MAP/microtubule affinity-regulating kinase 3 (P27448 whole entry): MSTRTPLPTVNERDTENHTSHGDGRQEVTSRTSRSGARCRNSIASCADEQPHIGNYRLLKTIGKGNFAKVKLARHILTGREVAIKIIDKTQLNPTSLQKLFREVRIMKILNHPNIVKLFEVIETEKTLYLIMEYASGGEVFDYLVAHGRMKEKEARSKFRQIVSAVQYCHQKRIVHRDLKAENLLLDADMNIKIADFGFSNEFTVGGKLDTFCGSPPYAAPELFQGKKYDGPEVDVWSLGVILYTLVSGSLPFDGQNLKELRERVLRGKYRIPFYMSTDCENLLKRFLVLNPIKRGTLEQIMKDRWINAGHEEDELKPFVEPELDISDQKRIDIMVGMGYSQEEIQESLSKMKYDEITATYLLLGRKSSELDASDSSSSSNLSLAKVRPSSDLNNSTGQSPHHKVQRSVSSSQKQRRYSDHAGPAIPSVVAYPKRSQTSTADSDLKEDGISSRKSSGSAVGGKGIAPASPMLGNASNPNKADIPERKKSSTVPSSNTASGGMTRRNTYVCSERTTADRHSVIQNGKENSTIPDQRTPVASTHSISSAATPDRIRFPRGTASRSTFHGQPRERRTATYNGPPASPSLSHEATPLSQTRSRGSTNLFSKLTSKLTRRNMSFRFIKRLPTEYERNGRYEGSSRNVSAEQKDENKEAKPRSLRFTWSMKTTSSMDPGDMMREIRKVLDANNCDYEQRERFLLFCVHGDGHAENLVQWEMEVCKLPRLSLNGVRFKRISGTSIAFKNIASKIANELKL
Chain of Protein kinase C theta type (Q04759 whole entry): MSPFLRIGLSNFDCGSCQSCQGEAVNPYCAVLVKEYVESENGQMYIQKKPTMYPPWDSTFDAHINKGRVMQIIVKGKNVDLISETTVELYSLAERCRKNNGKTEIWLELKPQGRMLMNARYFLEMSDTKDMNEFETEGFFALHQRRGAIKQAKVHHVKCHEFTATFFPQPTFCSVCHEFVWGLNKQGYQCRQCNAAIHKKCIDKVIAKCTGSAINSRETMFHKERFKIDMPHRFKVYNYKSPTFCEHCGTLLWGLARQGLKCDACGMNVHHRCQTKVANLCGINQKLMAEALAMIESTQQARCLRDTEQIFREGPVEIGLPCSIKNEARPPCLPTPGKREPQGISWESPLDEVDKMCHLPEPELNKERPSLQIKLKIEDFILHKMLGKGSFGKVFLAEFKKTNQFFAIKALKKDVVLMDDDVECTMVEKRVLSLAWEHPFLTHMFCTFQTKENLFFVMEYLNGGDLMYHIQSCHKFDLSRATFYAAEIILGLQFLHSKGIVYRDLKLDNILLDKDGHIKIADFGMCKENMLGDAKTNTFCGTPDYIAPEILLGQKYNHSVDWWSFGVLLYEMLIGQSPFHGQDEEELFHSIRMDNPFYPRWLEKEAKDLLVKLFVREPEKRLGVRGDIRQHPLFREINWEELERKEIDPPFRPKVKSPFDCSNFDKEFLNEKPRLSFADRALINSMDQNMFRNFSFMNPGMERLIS

The term Kd denotes the equilibrium constant for the complex coming apart. Regarding `Cc1nc2cc(-c3nn(C(C)C)c4ncnc(N)c34)ccc2o1`, the Kd in test [1], in [2], in test [3], in [4], in test [5] and in test [6] was > 30 µM (inactive) in each case. Besides, the Kd in test [7], in [8], in test [9] and in test [10] was > 30 µM (inactive) throughout.

For `Nc1ncnc2c1c(-c1cccc(OCc3ccccc3)c1)cn2[C@H]1C[C@@H](CN2CCC2)C1` [AEW-541], the Kd is > 30 µM (inactive) in test [1]; 0.005 µM in [2]; > 30 µM (inactive) in test [3]; > 30 µM (inactive) in test [5]; > 30 µM (inactive) in test [6]; > 30 µM (inactive) in test [7]. Further, the Kd in [8], in test [9] and in test [10] was > 30 µM (inactive) throughout.

`Cc1nc(NC(=O)N2CCC[C@H]2C(N)=O)sc1-c1ccnc(C(C)(C)C(F)(F)F)c1` [ALPELISIB]: the Kd in test [1], in [2], in [3], in test [5], in [6] and in test [7] was > 30 µM (inactive) each time. The Kd in test [8], in test [9] and in test [10] was > 30 µM (inactive) each time.

Take `C=CC(=O)Nc1cc2c(Nc3ccc(F)c(Cl)c3)ncnc2cc1C#CC(C)(C)N1CCN(C)CC1` [AV-412 FREE BASE]: the Kd in test [1], in test [2], in test [3], in [4], in [5] and in test [6] was > 30 µM (inactive) each time. Further, the Kd in [7], in test [8], in test [9] and in test [10] was > 30 µM (inactive) throughout.

Regarding `Cn1cnc2c(F)c(Nc3ccc(Br)cc3F)c(C(=O)NOCCO)cc21` [BINIMETINIB], the Kd in test [1], in [2], in [3], in test [4], in test [5] and in test [6] was > 30 µM (inactive) in each case. For the same compound, the Kd in [7], in test [8], in [9] and in test [10] was > 30 µM (inactive) each time.

For `CCn1c(C(=O)N(C2CC2)C2CC2)cc2c3c(ncn3C)c(Nc3cc(C)n(C)n3)nc21` [BMS-911543], the Kd in test [1], in test [2], in [3], in test [4], in [5] and in test [6] was > 30 µM (inactive) throughout. In addition, the Kd in test [7], in test [8], in test [9] and in [10] was > 30 µM (inactive) throughout.

For `Cc1cc(Nc2ncc(Cl)c(Nc3ccccc3S(=O)(=O)C(C)C)n2)c(OC(C)C)cc1C1CCNCC1` [CERITINIB], the Kd in test [1], in [2], in [3], in test [4], in test [5] and in test [6] was > 30 µM (inactive) in each case. Further, the Kd in [7] was 21.4 µM (active); in test [8] it was > 30 µM (inactive); in test [9], > 30 µM (inactive); in test [10] it was > 30 µM (inactive).

For `COc1c(OCCCN2CCOCC2)ccc2c1N=C(NC(=O)c1cnc(N)nc1)N1CCN=C21` [COPANLISIB], the Kd in test [1], in test [2], in [3], in test [4], in [5] and in test [6] was > 30 µM (inactive) throughout. Also, the Kd in test [7], in test [8], in [9] and in test [10] was > 30 µM (inactive) in each case.

With `COCC(=O)NC/C=C/c1ccc2ncnc(Nc3ccc(Oc4ccc(C)nc4)c(C)c3)c2c1` [CP-724714], the Kd in test [1], in test [2], in test [3], in test [4], in test [5] and in test [6] was > 30 µM (inactive) each time. The Kd in [7], in [8], in test [9] and in [10] was > 30 µM (inactive) throughout.

As for `FC(F)(F)c1ccc(/C=C/c2nc(COc3ccc(CCCCn4ccnn4)cc3)co2)cc1` [MUBRITINIB], the Kd in test [1], in [2], in test [3], in test [5], in [6] and in [7] was > 30 µM (inactive) in each case. Moreover, the Kd in test [8], in test [9] and in [10] was > 30 µM (inactive) throughout.

As to `Cc1cnc(NC(=O)Nc2cc(Br)c(C)cc2OC[C@@H]2CNCCO2)cn1` [RABUSERTIB], the Kd in [1], in [2], in test [3], in test [5], in [6] and in [7] was > 30 µM (inactive) throughout. Besides, the Kd in [8], in test [9] and in test [10] was > 30 µM (inactive) each time.
